From patent US12239654B2, “Compounds and methods for treating neurological and cardiovascular conditions” (Astrocyte Pharmaceuticals, Inc., priority 2016, dated 2025)

What was measured:
[1] = Plasma binding determination by plasma ultrafiltration, mouse; type: in vitro ADME; conditions: for fraction unbound at 60 min, 1 μM: male, CD-1, mouse, plasma
Method: (§1) Animals and Tissue Preparation: Plasma from male CD-1 mice was obtained from BioreclamationIVT (Westbury, NY) and stored at −80° C. until use. Male CD-1 mouse brains were obtained from BioreclamationIVT (Westbury, NY).
Plasma ultrafiltrate blank samples were prepared by thawing frozen plasma and then pre-warming plasma in a humidified 5% CO2 chamber at 37° C. for 60 minutes. Aliquots of 800 μL were transferred to Centrifree Centrifugal Filters (Ultracel regenerated cellulose (NMWL 30,000 amu) Lot R5JA31736) and centrifuged at 2900 RPM at 37° C. for 10 minutes; plasma water filtrates were collected and used in preparation of standards, blanks and QC standards.
Plasma samples were pre-warmed for 60 minutes in a humidified, 5% CO2 incubator maintained at 37° C. […] Spiked plasma samples were incubated on a rotary mixer in a humidified 5% CO2 chamber at 37° C. for a minimum of 60 minutes. After 60 minutes, three 800 μL aliquots of each sample were added to Centrifree centrifugal filters. The filters were subjected to centrifugation at 2900 rpm for 10 minutes at 37° C. Three 100 μL aliquots of residual plasma were collected along with ultrafiltrate for bioanalysis.
(§2) Plasma and brain concentrations of MRS4322 and MRS5698 in spiked plasma, brain homogenates and associated ultrafiltrates were determined by LC-MS/MS utilizing tolbutamide as an internal standard. […] The following tables outline the LC and MS/MS conditions employed (Tables 7 and 8).
(§3) For each tissue matrix, standard curves were created and LLOQ/ULOQ concentrations determined. The calibration range for the MRS4322 and MRS5698 plasma concentration standard curves was 400-1200 nM. The calibration range for MRS4322 and MRS5698 plasma ultrafiltrate standard curves was 100-1200 nM. The calibration range for MRS4322 brain homogenate and brain homogenate ultrafiltrate standard curves were 400-1200 nM and 100-1200 nM, respectively. The calibration range for MRS5698 brain homogenate and brain homogenate ultrafiltrate standard curves were 400-1200 nM and 1-500 nM, respectively.

[2] = target: T1, mouse A3 adenosine receptor (Mus musculus, UniProt Q61618); assay: Competition binding versus [^3H]NECA at mouse A3 receptors expressed in CHO cells
T1 construct: expressed in transfected cells; whole cells for cAMP
T1 sequence (Q61618 1-319): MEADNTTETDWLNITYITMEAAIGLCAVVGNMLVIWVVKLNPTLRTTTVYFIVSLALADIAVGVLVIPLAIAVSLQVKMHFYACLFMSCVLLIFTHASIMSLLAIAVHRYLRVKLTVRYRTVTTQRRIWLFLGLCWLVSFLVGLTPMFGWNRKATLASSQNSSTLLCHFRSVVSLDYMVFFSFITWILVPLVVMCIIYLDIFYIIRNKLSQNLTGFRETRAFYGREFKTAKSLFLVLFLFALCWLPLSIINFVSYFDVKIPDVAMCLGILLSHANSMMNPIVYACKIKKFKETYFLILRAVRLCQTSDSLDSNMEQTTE

[3] = Brain binding determination by brain homogenate ultrafiltration, mouse; type: in vitro ADME; conditions: 37° C., ultrafiltration; for fraction unbound at 60 min, 1 μM: male, CD-1, mouse, brain homogenate, pH 7.4, mouse brain homogenate
Method: as §1
Brains were weighed and homogenized with 1:9 phosphate-buffered saline, pH 7.4 using an Omni tissue homogenizer. Brains from four mice were homogenized, pooled and mixed to form one sample.
Pooled homogenized brains were pre-warmed for 60 minutes in a humidified, 5% CO2 incubator maintained at 37° C. […] Spiked pooled brain homogenates were placed on a Nutator mixer in a humidified, 5% CO2 incubator at 37° C. for 60 minutes. After 60 minutes, three 800 μL aliquots of each sample were added to Centrifree centrifugal filters. The filters were subjected to centrifugation at 2900 rpm for 10 minutes at 37° C. Aliquots of residual brain homogenate and ultrafiltrate were collected for bioanalysis.
as §2, §3

[4] = Pharmacokinetics of MRS4322 following intraperitoneal administration of MRS2365 to mice; type: in vivo; conditions: for Plasma Concentration Mean / Plasma Concentration by Subject / Brain Concentration Mean / Brain Concentration by Subject: analyte MRS4322, mice, MRS2365 0.24 mg/kg ip; for Plasma Concentration by Subject / Brain Concentration by Subject: subjects A-C
Method: Animals: Female C576BL/6J mice weighing approximately 0.02 Kg were used for this study, supplied by the University of Texas Health Sciences Center (San Antonio, TX). All studies were conducted under approved University of Texas Health Sciences Center IACUC protocols.
Drug Administration: MRS2365 was solubilized in phosphate-buffered saline and then diluted in phosphate-buffered saline to prepare dosing solution. Final dosing solution concentration of MRS2365 was 100 μM. A 100 μL volume of dosing solution was administered intraperitoneally to each mouse per 20 gram body weight; MRS2365 was administered intraperitoneally at 0.5 μmol/kg or 0.24 mg/kg. Three mice were administered MRS2365 for each sampling timepoint.
Tissue Sampling: Blood and brain samples were obtained at 0, 0.083, 0.25, 0.5, 1, 2 and 8 hours post-dose. At each timepoint, mice (3/timepoint) were euthanized in a […] chamber. Whole blood was obtained by cardiac puncture into Microtainer tubes containing heparin and immediately centrifuged for preparation of plasma; plasma was stored at −80° C. At each timepoint, whole brain samples were obtained by decapitation, rinsed in ice-cold phosphate-buffered saline and weighed. Brain samples were then immediately flash-frozen in liquid nitrogen and stored at −80° C.
The following table outlines the LC and MS/MS conditions employed:
The calibration range for the MRS4322 plasma concentration standard curve was 2.26-241 ng/mL. The calibration range for MRS4322 brain concentrations was 2.35-242 ng/mL.
For bioanalysis of brain concentrations of MRS4322, brain samples were homogenized in ice-cold phosphate-buffered saline in a 4× dilution. Aliquots of the resulting diluted brain homogenate were treated with acetonitrile and analyzed by LC-MS/MS. Because of the 4× homogenate dilution, the calibration range of the MRS4322 brain standard curve was translated to 9.40-968 ng/gm. In several samples, MRS4322 were detectable but fell below the brain LLOQ of 9.40 ng/gm but were above background; in these cases the final reported brain concentration was extrapolated based on MS peak heights.

[5] = mouse plasma, 1 μM, 37° C., ultrafiltration, read-out: Fraction Unbound Mean
[6] = read-out: Fraction Unbound Mean

CNC(=O)[C@H]1O[C@@H](n2cnc3c(NCc4cccc(I)c4)nc(Cl)nc32)[C@H](O)[C@@H]1O [Cl-IB-MECA, 2-Chloro-N^6-(3-iodobenzyl)-adenosine-5′-N-methyluronamide, reference compound]
fraction unbound at 60 min, 1 μM [1, 5]: 0.002 | difference in affinity of Cl-IB-MECA and MRS4322 at mouse A3 receptor ([2]; Cl-IB-MECA vs MRS4322): approximately 25,000 fold | fraction unbound at 60 min, 1 μM [3, 6]: 0.002

CSc1nc(N)c2ncn([C@H]3[C@H](O)[C@H](O)[C@]4(COP(=O)(O)OP(=O)(O)O)C[C@H]34)c2n1 [MRS2365]
metabolism following intraperitoneal administration to mice ([4]; MRS2365 0.5 μmol/kg ip, comparison with equimolar MRS4322): rapidly and completely metabolized to MRS4322

CSc1nc(N)c2ncn([C@H]3[C@H](O)[C@H](O)[C@]4(CO)C[C@H]34)c2n1 [MRS4322]
Plasma Concentration Mean ([4]; 0 h): BLQ | Plasma Concentration by Subject ([4]; 0 h): BLQ | Brain Concentration Mean ([4]; 0.083 h): BLQ | Brain Concentration by Subject ([4]; 0.083 h): BLQ | Brain Concentration Mean ([4]; 1 h): BLQ | Brain Concentration by Subject ([4]; 1 h): BLQ | Brain Concentration Mean ([4]; 2 h): BLQ | Brain Concentration by Subject ([4]; 2 h): BLQ | Brain Concentration Mean ([4]; 8 h): BLQ | Plasma Concentration Mean ([4]; 8 h): BLQ | Brain Concentration by Subject ([4]; 8 h): BLQ | Plasma Concentration by Subject ([4]; 8 h): BLQ | Kp ([4]; female, C57BL/6J, mouse, MRS4322 after MRS2365 ip to mice, based on mean Cmax concentrations in plasma and brain, read-out: brain/plasma ratio of total drug): ~0.1 | fraction unbound at 60 min, 1 μM ([1]; mouse plasma, 1 μM, 37° C., ultrafiltration, read-out: % Bound Mean (converted)): 0.742 | fraction unbound at 60 min, 1 μM [1, 5]: 0.742 | fraction available to interact with the A3 receptor relative to Cl-IB-MECA ([1]; mouse models, from unbound fractions in plasma and brain): at least 1000 fold | Fraction Unbound Mean ([1]; mouse plasma, 1 μM, 37° C., ultrafiltration): 0.74 | Ki ([2]; read-out: Ki ± SEM, Mouse A3R, [^3H]NECA, CHO cell membrane preparations, [^3H]NECA (10 nM)): 4.94 ± 0.974 µM | fraction unbound at 60 min, 1 μM ([3]; read-out: % Bound Mean (converted)): 0.13 | fraction unbound at 60 min, 1 μM [3, 6]: 0.13 | % Bound Mean ([3]; mouse brain homogenate, 1 μM): 87.0% | Fraction Unbound Mean ([3]; mouse brain homogenate, 1 μM): 0.130
